Reference: patent publication EP0714404B1, “ANTI-INFLAMMATORY PEPTIDES” (CURATIVE TECHNOLOGIES, INC., priority 1993, dated 1995)
Like-named read-outs stand apart in the source and are kept apart here. Residues, ends and D or L forms follow the SMILES beside them.

Assays:
Format in all cases: in vivo, mice
[1] = system: Delayed Type Hypersensitivity; experiment: mouse model of delayed-type hypersensitivity induced by DNCB; settings: Prednisone ip 25 mg/kg, 2 hr prior to challenge
Experimental: CT-112 (SEQ. ID NO: 1) was tested for its ability to modulate the immune response in a mouse model of delayed hypersensitivity (Filipp et al., 1984, Allergy, 39: 499-507; Diezel et al., 1989 J. Invest. Dermatol. 93:322-326). The mice used in this study were 8-wk old hairless females (Jackson Laboratories). The mice were sensitized to a contact allergen (1-chloro-2,4-dinitrobenzene, DNCB) by painting the dorsothoracic region twice daily for 5 consecutive days with 50 µl of 0.5% DNCB in 75% acetone:25% vegetable oil. The animals were allowed to rest for 24 hr prior to challenge with DNCB. On the sixth day after initiation of the sensitization treatments, the animals were challenged with 50 µl of DNCB solution applied to the left ear. After 24 hrs, the ear thickness was determined and compared to the unchallenged ear.
The treatment groups were as follows: • a) PBS control; • b) Prednisone (intraperitoneal injection of 25 mg/kg, 2 hr prior to challenge); • c) 7-day pump (60 mg CT-112/kg/24 hr); • d) CT-112 (intraperitoneal injections of 60 mg/kg/injection at 3, 1, and 0.25 hr prior to challenge and 3, 6 and 21 hr post-challenge); • e) DMSO control (topical application of 50 µl at 3, 1 and 0.25 hr prior to challenge; and • f) CT-112 in DMSO (20 mg/ml, topical application of 50 µl at 3, 1, and 0.25 hr prior to challenge and 3, 6 and 21 hr post-challenge).

[2] = system: Arachidonic Acid Induced Inflammation; experiment: mouse ear model, arachidonic acid (AA) induced inflammation, ear thickness
Experimental: (§1) The anti-inflammatory properties of CT-112 (SEQ. ID NO: 1) were assessed using a standardized assay for anti-inflammatory activity, i.e., the mouse ear model in which arachidonic acid (AA) is used to induce an inflammatory reaction (Young et al., 1984, J. Invest. Dermatol. 82:367-371; Doherty, et al., 1988, J. Invest. Dermatol. 91:298-302).
(§2) Female mice (C57BL/6UAF, Charles River Breeding Laboratories, approximately 15-18 g) were obtained and acclimated for 2 weeks prior to use. The animals were approximately 14 weeks old at the start of the study.
(§3) To prepare minipumps for implantation, CT-112 (SEQ. ID NO: 1) was dissolved in PBS. The material was loaded into Alzet minipumps set to deliver 0.05 (5 animals), 0.1 (10 animals), 1 (10 animals), or 2.5 (5 animals) mg of CT-112 (SEQ. ID NO: 1) per animal per day. Minipumps for implantation into control animals contained only PBS. As a positive control, one set of 10 mice received 100 mg/kg of phenidone, a potent 5-lipoxygenase inhibitor which acts as an anti-inflammatory agent, 15 min prior to challenge with AA.
(§4) For subcutaneous implantation of minipumps, animals were anesthetized with Ketamine/Xylazine. The Ketamine (Aveco Lot #440140) was injected at 80 mg/kg and the Xylazine (Rugby Laboratories Lot #26040-B) at 16 mg/kg and the Alzet pumps were implanted subcutaneously in the dorsothoracic area. Animals were allowed to recover and then housed and given food and water ad libitum for 5 days.
(§5) On the sixth day following pump implantation, 0.01 ml of AA was applied to the inner and outer surfaces of the right ear by means of an automatic microliter pipette. One hr following AA application, the mice were sacrificed and ear thickness was measured with a Mitutoyo No. 7300 Gauge Caliper. The left ears were also measured as an internal control.
(§6) Mice were implanted with Alzet mini-pumps set to deliver 60 mg/kg/day for either 7, 3, or 1 days. A separate group of 5 mice received 3 intraperitoneal injections of CT-112 (60 mg/kg/injection) at 24, 1 and 0.25 hr prior to AA challenge. CT-112 (SEQ. ID NO: 1) was prepared for injection by dissolving the compound in Dulbecco's PBS to give a final CT-112 (SEQ. ID NO: 1) concentration of 5 mg/ml. The control mice were implanted with Alzet minipumps that delivered PBS for 7 days. The AA challenge was the same as described supra in Example 7.
(§7) Administration of CT-112 (SEQ. ID NO: 1) (60 mg/kg/injection) via multiple intraperitoneal injections was performed at the following times prior to AA challenge: • a) 6, 3, 1 and 0.25 hr; • b) 3, 1 and 0.25 hr; or • c) 1 and 0.25 hr.
(§8) In addition, the effect of a single administration of CT-112 (SEQ. ID NO: 1) (60 mg/kg) by intraperitoneal injection was performed at either 1 or 3 hr prior to AA challenge. Control mice had Alzet minipumps implanted to deliver PBS for 7 days prior to AA challenge. The AA challenge was the same as described supra in Example 7. The results of the multiple dosing regimens and the 1 hr and 3 hr single dosing regimens were compared to the anti-inflammatory activity of CT-112 (SEQ. ID NO: 1) delivered via Alzet minipump set to deliver 60 mg/kg/day for 7 days using 5 animals per treatment.
In a separate experiment, the effect of multiple intraperitoneal injections of CT-112 (SEQ. ID NO: 1) at either 6, 3, 1 and 0.25 hr, or 16, 3, 1 and 0.25 hr prior to AA challenge was assessed. […]

[3] = system: Arachidonic Acid Induced Myeloperoxidase Activity in Mouse Ear; experiment: myeloperoxidase activity in AA-treated mouse ear tissue (marker for PMNs); parameters: dose or concentration left out as unconfirmed; settings: Phenidone 100
Experimental: Myeloperoxidase activity in ear tissue was measured as a marker for the presence or absence of polymorphonuclear leukocytes (PMNs) (Barone et al., 1991, J. Neurosci. Res. 29:336-345). After measurement of ear thickness, ears were dissected from the mice and homogenized in 50mM Tris-HCL, pH 7.4 at 4°C to give a 10% (w/v) homogenate. Aliquots of the homogenate were used to determine the amount of myeloperoxidase activity present in the tissue using o-dianisidine (Sigma Chem Co., St. Louis MO) and hydrogen peroxide as substrates and monitoring chromophore generation at 460 nm (Barone et al., 1991, J. Neurosci. Res. 29:336-345).

[4] = system: Arachidonic Acid Induced Inflammation; settings: mouse, in vivo
Experimental: as §1, §2, §3, §4, §5, §6, §7, §8
In a separate experiment, the effect of multiple intraperitoneal injections of CT-112 (SEQ. ID NO: 1) at either 6, 3, 1 and 0.25 hr, or 16, 3, 1 and 0.25 hr prior to AA challenge was assessed. The results of both multi-dosing regimens were compared to both phenidone (100 mg/kg administered 15 min prior to AA challenge) and CT-112 (SEQ. ID NO: 1) administered via Alzet mini-pump (60 mg/kg/day for 7 days). For this latter study, the number of animals receiving the single injection of CT-112 (SEQ. ID NO: 1) was increased from 5 to 10.
Administration to mice of CT-112 (SEQ. ID NO: 1) (60 mg/kg/injection) via multiple subcutaneous injections prior to AA challenge was performed at: • a) 6, 3, 1 and 0.25 hr; • b) 3, 1 and 0.25 hr; or • c) 1 and 0.25 hr. […]

[5] = Table V, Phenidone 100 mg/kg 15 min prior to AA

For `C[C@]12C=CC(=O)C=C1CC[C@@H]1[C@@H]2C(=O)C[C@@]2(C)[C@H]1CC[C@]2(O)C(=O)CO` [Prednisone], the “% Inhibition of Inflammation” value [1] was 96.7% and the “Thickness Difference (Left-Right)” value ([1]; 24 hrs after DNCB) was 0.00014 ± 0.000446 in.
`O=C1CCN(c2ccccc2)N1` [Phenidone] was tested, and the “Ear Thickness” value ([2]; Phenidone 100mg/kg, 15 min prior to AA, 1 hr after AA) was 0.01176 ± 0.0008 (10) in, the “% Inhibition of Inflammation” value ([2]; Table III, Phenidone 100 mg/kg) was 88% and the “Thickness Difference (Left-Right)” value ([2]; Table III, Phenidone 100 mg/kg) was 0.00073 ± 0.00153 in. The “% Inhibition of Inflammation” value [2, 5] was 84.2%, the “Thickness Difference (Left-Right)” value [2, 5] was 0.00102 ± 0.00038(5) in and the “Myeloperoxidase Activity” value [3] was 14.5 ± 8.6 µmole of chromophore formed/min.
For `CC(C)[C@H](NC(=O)[C@H](CCC(N)=O)NC(=O)[C@H](CO)NC(=O)[C@@H](NC(=O)[C@@H](N)[C@@H](C)O)[C@@H](C)O)C(=O)O` [CT-114, Thr-Thr-Ser-Gln-Val] (H-TTSQV-OH), the “% Inhibition of Inflammation” value ([4]; 6 mg/kg/day) was 59.3% and the “% Inhibition of Inflammation” value ([4]; 60 mg/kg/day) was 62.4%.
